In article doi:10.1101/2023.01.08.523168v1 (biorxiv, 2023):
Residues, ends and D or L forms follow the SMILES beside them. *: point of attachment. Oxazole(5-CO) = O=C(c1cnco1)*

Target: T1, NanoLuc-ENL (ENL YEATS-NanoLuc luciferase fusion protein) (Homo sapiens, UniProt Q03111)
T1 sequence (Q03111 1-148): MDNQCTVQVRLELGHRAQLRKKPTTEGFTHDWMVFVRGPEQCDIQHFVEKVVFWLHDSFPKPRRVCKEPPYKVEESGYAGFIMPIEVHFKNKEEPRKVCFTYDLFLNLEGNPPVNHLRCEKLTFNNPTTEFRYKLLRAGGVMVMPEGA
Assay: NanoBRET tracer displacement in HEK293T cells
Format: cell-based
Conditions: HEK-293T, read-out: % inhibition at 40 μM

SMILES: CC(=O)N[C@H](C(=O)N[C@@H](Cc1ccc(O)cc1)C(=O)N[C@@H](CS)C(=O)N[C@@H](Cc1ccc(O)cc1)C(=O)N[C@@H](CCCCNC(=O)c1cnco1)C(N)=O)C(C)C [tENL-S1o] (Ac-VYCYK(Oxazole(5-CO))-NH2)
- inhibition at 40 µM: ~50%
